This assay deals with T1, HOIP RBR R1032A mutant (Homo sapiens, UniProt Q96EP0, R1032A).
T1 construct: 697-1072; made in house; host or cells: E. coli BL21-GOLD(DE3)
The assay can be described thus: Protein LC-MS library screen, covalent labeling. Type of assay: binding. The conditions noted are these: 20 μM compound, 2 μM protein, 24 h incubation. As for the experimental part: 3.1 Experimental procedures
Acquisition of mass spectrometry data was carried out using positive electrospray ionisation (ESI) on an Agilent 6224 TOF LC-MS system equipped with a Diode Array Detector (DAD), a Wellplate sampler (held at 10 °C) and an Agilent PLRP-S reverse phase column (50 mm, 1 mm diameter, 5 µm particle size) held at 70 °C. The following mobile phases were used for the LC: Mobile phase A (MP A) = 0.2% Formic acid in water, v/v; Mobile phase B (MP B) = 0.2% Formic acid in MeCN, v/v. The following LC method was employed: 0-0.5 min (10→30% B in A, v/v), 0.5-5 min (30→55% […]
mL/min. Injection volume: 10 µL. The run length was 8 min, and equilibration time 1 min after each sample. […] Between 0.5 and 6 min the TOF mass spectrometer recorded 1 spectrum per second with a scan range between 700 and 2200 AMU. […]
thawed individually and analyzed by protein mass spectrometry as described above. The total ion counts (TICs) detected for unlabelled HOIP and labelled HOIP-(5) conjugate within a peak elution range of 10 seconds were used to calculate the ratio of labelled HOIP RBR over total HOIP RBR content for each sample. The averaged data from 3 independent experiments were analyzed according to a two-step model of reversible ligand binding followed by irreversible covalent […]

The text below walks through data of publication PMC6383986, “Fragment-Based Covalent Ligand Screening Enables Rapid Discovery of Inhibitors for the RBR E3 Ubiquitin Ligase HOIP” (Journal of the American Chemical Society, 2019).

Bounds are passed on as bounds.

T1 sequence (Q96EP0 697-1072 R1032A): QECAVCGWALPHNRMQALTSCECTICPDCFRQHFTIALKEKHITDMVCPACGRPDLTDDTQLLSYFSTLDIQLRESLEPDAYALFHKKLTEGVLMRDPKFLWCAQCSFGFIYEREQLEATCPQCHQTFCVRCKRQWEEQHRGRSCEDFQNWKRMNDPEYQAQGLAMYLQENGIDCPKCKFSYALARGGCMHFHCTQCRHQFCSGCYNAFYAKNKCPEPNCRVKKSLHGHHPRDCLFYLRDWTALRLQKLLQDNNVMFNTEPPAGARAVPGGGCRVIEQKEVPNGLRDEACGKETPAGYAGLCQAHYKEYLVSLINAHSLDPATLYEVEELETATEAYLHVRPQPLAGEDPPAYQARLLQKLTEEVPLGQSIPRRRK

On to `COC(=O)/C=C/CNC(=O)c1cc2c([nH]c1=O)CCC2` [Compound 5], for which the “labeling of HOIP RBR R1032A” value is > 85%.
